Here are results for two compounds from paper PMC5199340, “RET Functions as a Dual-Specificity Kinase that Requires Allosteric Inputs from Juxtamembrane Elements” (Cell Reports, 2016).

The target of assay [1] is T1, RET (Homo sapiens, UniProt P07949).
T1 construct: RET JM-KD (residues 661–1012)
T1 sequence (P07949 661-1012): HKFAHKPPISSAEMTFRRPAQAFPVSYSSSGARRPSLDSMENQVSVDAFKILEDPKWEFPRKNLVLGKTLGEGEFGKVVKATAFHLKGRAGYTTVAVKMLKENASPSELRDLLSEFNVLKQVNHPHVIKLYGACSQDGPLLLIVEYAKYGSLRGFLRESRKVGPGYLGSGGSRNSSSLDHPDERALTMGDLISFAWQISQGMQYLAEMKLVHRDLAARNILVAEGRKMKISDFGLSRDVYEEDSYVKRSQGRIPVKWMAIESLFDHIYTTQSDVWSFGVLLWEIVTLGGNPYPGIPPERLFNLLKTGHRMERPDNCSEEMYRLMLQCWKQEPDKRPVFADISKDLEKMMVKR
Kind of assay: isothermal titration calorimetry (ITC). Format: binding.

The target of assay [2] is T2, RET (Homo sapiens, UniProt P07949).
T2 construct: RET JM-KD (residues 659–1013), phosphorylated (Y809, Y905, S909, Y928)
T2 sequence (P07949 659-1013): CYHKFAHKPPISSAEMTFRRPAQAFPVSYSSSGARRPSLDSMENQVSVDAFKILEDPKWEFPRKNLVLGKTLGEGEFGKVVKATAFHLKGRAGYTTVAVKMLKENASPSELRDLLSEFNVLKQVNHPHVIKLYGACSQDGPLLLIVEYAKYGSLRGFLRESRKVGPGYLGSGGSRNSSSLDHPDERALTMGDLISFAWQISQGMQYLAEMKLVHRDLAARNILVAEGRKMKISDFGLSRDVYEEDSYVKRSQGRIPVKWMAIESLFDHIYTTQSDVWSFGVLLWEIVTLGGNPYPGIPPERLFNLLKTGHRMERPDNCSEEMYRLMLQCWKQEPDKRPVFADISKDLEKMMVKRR
In words: X-ray crystal structures ([…] Å and […] Å). Format: binding.

The term Kd denotes the constant that tells how readily two partners part at equilibrium. Regarding `Nc1ncnc2c1ncn2[C@@H]1O[C@H](COP(=O)(O)OP(=O)(O)OP(=O)(O)O)[C@@H](O)[C@H]1O` [ATP], the Kd in assay [1] amounted to 37.5 ± 3.1 µM.
Consider `Cc1ccc(-c2nn(C(C)(C)C)c3ncnc(N)c23)cc1` [PP1], for which, in assay [2], the “X-ray crystal structures (2.95 Å and 3.3 Å)” value is recorded as “Both crystal structures contained the PP1 tyrosine kinase inhibitor in the nucleotide-binding pocket”.
